In one test the target is T1, Cyclin K (CCNK) (Homo sapiens, UniProt O75909+Q9NYV4).
T1 construct: total cell protein was extracted with RIPA cell lysis buffer; host or cells: HEK293
Kind of test: Western blot detection of Cyclin K (CCNK) degradation. It counts as cell-based. As to conditions: HEK293 cells, compared with the control; for degradation of Cyclin K (FIG. 2): 1 μM, 6 hours. The protocol:
Western Blot Detection of Cyclin K (CCNK) Degradation
Harvest HEK1293 cells (ATCC, cat #CRL-1573) and adjust the cell density to 1×10^6 cells per ml. Pour 1 ml of cell suspension per well into a 6-well plate and culture overnight. Take the compound stock solution and dilute it to the appropriate concentration with DMSO. Add the diluted compound into the cell wells using culture medium at a ratio of 1:1000 to ensure that the DMSO concentration in each well is 0.1%. At the same time, negative control wells were set, that is, complete culture medium containing 0.1% DMSO. After the compounds were treated and fixed at the concentrations shown in the figure and for different times, total cell protein was extracted with RIPA cell lysis buffer (Beyotime, cat #P0013B) added with PMSF. After protein quantification using the BCA protein quantification kit (Thermo Fisher, cat #A53225), each sample was subjected to subsequent SDS-PAGE and western blot experiments at a loading volume of 40 μg. The specific conditions are: after running the gel at 120V constant pressure for 90 minutes, transfer the film at a constant current of 320 mA for 60 minutes. Carry out antibody incubation according to the recommended dilution ratio and incubation time of the antibody. The information of the antibodies used in the experiment is as follows: Anti-GAPDH antibody (abcam, cat #ab9485), Anti-Cyclin K antibody (abcam, cat #ab85854), Goat anti-Rabbit IgG (H+L) Cross-Adsorbed Secondary Antibody, HRP (invitrogen, cat #G-21234). ECL luminescence solution (Thermo Fisher, cat #32209) was used to develop color and luminescence. A gel imaging system was used to analyze the final results.
According to the above detection method, some compounds of the present disclosure were evaluated.

For test [1], the system named is HGC27 (Human Gastric Cancer Cell). Kind of test: HGC27 cell growth inhibition (CellTiter-Glo). In kind it is cell-based. As to conditions: Homo sapiens, HGC-27, 24 h, read-out: HGC27 CTG IC50. The method, then: Biological Activity Detection of HGC27 (Human Gastric Cancer Cell) Cell Growth Inhibition
This detection method is used to evaluate the cellular level biological activity of the compounds of the present disclosure.
Harvest HGC27 cells (purchased from Chinese Academy of Sciences), resuspend in complete culture medium and adjust the cell density to 0.2×10^6 cells per ml. Add 100 μL of cell suspension to each well into a 96-well plate and incubate overnight in a 37° C., 5% CO2 incubator. Prepare the compound to be tested and add it to the cell plate so that the maximum concentration of the compound is 10 μM. Set 8 concentration points according to 3-fold dilution. At the same time, set up a 100% inhibition control well, that is, a well with no cells added and only an equal volume of complete culture medium; and a 0% inhibition control well, that is, a cell well with 0.1% DMSO added. The above cell plate was cultured at 37° C. and 5% CO2 for 24 hours. Take out the cell culture plate, add 25 μl CellTiter-Glo® Luminescent Cell Viability reagent (promega cat #G7573) to each well, incubate in the dark for 10 minutes, transfer 100 μL to a white plate, and use Molecular Devices SpectraMax i3 to detect chemiluminescence. Data processing uses the following formula to calculate the inhibition rate: compound inhibition rate=(0% inhibition of control well signal−compound treatment well signal)/(0% inhibition of control well signal−100% inhibition of control well signal)*100%. The calculated data were fitted using graphpad prism software with four parameters and the corresponding IC50 was calculated.
According to the above detection method, the biological activity of the compound of the present disclosure was evaluated at the cellular level. Wherein, CR8 is a literature compound, which was purchased from Shanghai Bide Pharmaceutical.
(In ATP-based viability assays light output follows the ATP content of the culture.)

[2] abbreviates: HGC27 cells, 24 hours, CellTiter-Glo.

Read-outs that look alike come from different tables or passages of the source.

For orientation: IC50 means the point on the concentration scale where inhibition reaches its midpoint.

T1 sequence (O75909 whole entry): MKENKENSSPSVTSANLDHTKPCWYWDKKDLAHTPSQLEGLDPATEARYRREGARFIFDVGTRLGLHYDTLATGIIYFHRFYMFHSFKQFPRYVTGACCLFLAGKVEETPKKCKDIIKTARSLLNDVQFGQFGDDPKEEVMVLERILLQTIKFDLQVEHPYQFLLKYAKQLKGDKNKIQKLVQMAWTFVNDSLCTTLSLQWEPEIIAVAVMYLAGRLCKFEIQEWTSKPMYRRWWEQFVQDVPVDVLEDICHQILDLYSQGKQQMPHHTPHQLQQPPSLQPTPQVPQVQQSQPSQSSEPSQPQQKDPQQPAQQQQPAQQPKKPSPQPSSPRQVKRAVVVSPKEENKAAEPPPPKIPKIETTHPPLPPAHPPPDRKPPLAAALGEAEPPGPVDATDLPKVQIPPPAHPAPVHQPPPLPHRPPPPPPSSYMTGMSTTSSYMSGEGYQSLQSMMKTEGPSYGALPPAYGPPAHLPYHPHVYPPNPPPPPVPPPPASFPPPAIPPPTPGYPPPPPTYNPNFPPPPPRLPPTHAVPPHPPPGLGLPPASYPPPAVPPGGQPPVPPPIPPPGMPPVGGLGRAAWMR
T1 sequence (Q9NYV4 whole entry): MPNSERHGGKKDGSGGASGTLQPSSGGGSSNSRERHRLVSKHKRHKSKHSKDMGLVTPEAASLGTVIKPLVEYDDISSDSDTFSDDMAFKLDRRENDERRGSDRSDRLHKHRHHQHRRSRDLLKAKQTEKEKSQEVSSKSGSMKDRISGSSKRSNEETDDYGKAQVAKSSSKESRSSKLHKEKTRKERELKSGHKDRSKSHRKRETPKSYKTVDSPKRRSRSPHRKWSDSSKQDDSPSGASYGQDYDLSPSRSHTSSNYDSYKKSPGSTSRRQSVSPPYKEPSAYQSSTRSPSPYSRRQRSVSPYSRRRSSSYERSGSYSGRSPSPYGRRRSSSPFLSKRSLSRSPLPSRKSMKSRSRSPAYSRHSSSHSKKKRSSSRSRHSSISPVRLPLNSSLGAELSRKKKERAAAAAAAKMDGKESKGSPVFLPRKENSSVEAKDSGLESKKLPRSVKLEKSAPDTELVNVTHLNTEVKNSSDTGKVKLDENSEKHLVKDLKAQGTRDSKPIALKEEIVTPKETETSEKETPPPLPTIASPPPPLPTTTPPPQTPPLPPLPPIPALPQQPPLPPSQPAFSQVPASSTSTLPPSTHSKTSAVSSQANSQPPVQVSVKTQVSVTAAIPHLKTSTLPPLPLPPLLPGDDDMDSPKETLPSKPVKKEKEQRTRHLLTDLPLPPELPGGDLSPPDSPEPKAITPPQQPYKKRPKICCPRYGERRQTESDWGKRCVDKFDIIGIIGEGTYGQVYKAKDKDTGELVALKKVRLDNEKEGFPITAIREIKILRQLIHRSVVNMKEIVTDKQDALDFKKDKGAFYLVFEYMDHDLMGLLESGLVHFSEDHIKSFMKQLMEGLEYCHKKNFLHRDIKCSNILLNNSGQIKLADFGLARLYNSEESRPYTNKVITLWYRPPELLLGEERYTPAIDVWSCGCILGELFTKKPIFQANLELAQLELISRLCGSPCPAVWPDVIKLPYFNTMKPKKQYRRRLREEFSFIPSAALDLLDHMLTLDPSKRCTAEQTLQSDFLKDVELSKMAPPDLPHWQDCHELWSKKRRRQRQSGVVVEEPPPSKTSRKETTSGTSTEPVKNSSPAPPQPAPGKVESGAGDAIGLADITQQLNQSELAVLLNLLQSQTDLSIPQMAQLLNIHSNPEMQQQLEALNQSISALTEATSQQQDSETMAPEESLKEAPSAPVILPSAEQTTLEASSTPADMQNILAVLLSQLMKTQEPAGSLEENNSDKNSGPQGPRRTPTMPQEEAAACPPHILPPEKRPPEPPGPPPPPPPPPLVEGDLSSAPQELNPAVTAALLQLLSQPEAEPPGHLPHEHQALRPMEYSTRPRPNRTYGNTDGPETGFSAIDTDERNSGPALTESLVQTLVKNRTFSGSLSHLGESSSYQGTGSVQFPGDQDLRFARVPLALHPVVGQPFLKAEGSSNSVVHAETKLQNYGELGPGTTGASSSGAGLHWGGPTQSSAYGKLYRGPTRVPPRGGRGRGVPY
T1 sequence (Q16531 whole entry partner): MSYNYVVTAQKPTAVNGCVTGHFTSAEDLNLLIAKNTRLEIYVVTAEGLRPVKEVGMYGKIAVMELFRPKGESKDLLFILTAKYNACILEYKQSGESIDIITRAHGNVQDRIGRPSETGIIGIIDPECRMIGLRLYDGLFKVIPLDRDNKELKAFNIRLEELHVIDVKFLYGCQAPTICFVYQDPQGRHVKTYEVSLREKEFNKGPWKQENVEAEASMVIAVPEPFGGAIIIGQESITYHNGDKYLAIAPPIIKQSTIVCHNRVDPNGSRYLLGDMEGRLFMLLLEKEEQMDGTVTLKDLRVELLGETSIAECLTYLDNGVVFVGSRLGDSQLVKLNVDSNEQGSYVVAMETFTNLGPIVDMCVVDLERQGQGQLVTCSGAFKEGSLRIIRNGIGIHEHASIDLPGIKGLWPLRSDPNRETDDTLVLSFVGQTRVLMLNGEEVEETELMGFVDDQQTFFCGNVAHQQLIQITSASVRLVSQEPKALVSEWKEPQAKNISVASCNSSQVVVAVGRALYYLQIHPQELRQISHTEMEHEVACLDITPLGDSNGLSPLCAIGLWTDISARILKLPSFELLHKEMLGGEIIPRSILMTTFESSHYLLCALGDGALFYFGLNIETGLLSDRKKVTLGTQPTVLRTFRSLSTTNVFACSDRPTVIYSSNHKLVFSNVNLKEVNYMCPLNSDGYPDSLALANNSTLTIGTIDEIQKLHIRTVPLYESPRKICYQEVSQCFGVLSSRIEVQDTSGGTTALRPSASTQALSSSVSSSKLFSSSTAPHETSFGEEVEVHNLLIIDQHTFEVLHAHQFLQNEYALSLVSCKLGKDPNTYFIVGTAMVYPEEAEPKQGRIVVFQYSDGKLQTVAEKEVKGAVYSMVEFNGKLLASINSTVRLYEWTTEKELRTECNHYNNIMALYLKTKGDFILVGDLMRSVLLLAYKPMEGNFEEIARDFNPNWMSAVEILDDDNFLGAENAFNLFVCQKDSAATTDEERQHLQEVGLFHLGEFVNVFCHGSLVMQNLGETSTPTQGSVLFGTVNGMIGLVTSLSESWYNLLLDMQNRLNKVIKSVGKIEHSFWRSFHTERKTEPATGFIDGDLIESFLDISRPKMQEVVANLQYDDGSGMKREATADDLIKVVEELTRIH

With `Clc1cnc(NCc2ccc(-c3ccccn3)cc2)nc1OC1COC1` [Compound 3], at Cyclin K (CCNK), the “degradation of Cyclin K (FIG. 2)” value is listed as “significantly induce the degradation of Cyclin K”.

Regarding `CS(=O)(=O)c1cncc(-c2nc(NCc3ccc(-c4ccccn4)cc3)ncc2C(F)(F)F)c1` [Compound 13], the IC50 in test [1] (setting [2]) is 307 nM. At Cyclin K (CCNK), the “degradation of Cyclin K (FIG. 2)” value is “significantly induce the degradation of Cyclin K”.

As for `FC(F)(F)c1cnc(NCc2ccc(-c3ccccn3)cc2)nc1OC1COC1` [Compound 1], the IC50 in test [1] (setting [2]) is 385 nM. For the same molecule, on Cyclin K (CCNK) (0.1, 0.3, 1 μM, 6 h, 14 h, 24 h), the “degradation of Cyclin K (FIG. 1)” value is recorded as “significantly induce the degradation of Cyclin K”.

With `FC(F)(F)c1cnc(NCc2ccc(-c3ccccn3)cn2)nc1OC1COC1` [Compound 4], the “degradation of Cyclin K (FIG. 2)” value on Cyclin K (CCNK) was “significantly induce the degradation of Cyclin K”.

As to `OCc1cccc(-c2ccc(CNc3ncc(C(F)(F)F)c(OC4COC4)n3)cc2)n1` [Compound 18], the IC50 in test [1] (setting [2]) was 281 nM. Further, the “degradation of Cyclin K (FIG. 2)” value at Cyclin K (CCNK) is listed as “significantly induce the degradation of Cyclin K”.

Regarding `FC(F)(F)c1cnc(NCc2ccc(-c3cccnc3)cc2)nc1OC1COC1` [Compound 5], the “degradation of Cyclin K (FIG. 2)” value at Cyclin K (CCNK) was “significantly induce the degradation of Cyclin K”.

For `NC(=O)[C@H](Nc1nc(NCc2ccc(-c3ccccn3)cc2)ncc1C(F)(F)F)C1CCC1` [Compound 211], in test [1] (setting [2]), the IC50 came to 110 nM.

Regarding `C[C@@H](Oc1nc(NCc2ccc(-c3ccccn3)cc2)ncc1C(F)(F)F)C(N)=O` [Compound 166], the IC50 in test [1] (setting [2]) is 24 nM.

With `CC[C@@H](Nc1nc(NCc2ccc(-c3cc(C)cc(CO)n3)cc2)ncc1C(F)(F)F)C(N)=O` [Compound 163], the IC50 in test [1] (setting [2]) came out at 393 nM.

Turning to `COc1ccnc(-c2ccc(CNc3ncc(C(F)(F)F)c(OC4COC4)n3)cc2)c1` [Compound 114], the IC50 in test [1] (setting [2]) amounted to 251 nM.

Regarding `C[C@@H](O)[C@@H](CO)Nc1nc(NCc2ccc(-c3cc(CO)cc(CO)n3)cc2)ncc1C#N` [Compound 175], the IC50 in test [1] (setting [2]) was 406 nM.

With `OCc1ccnc(-c2ccc(CNc3ncc(C(F)(F)F)c(OC4COC4)n3)cc2)c1` [Compound 43], the IC50 in test [1] (setting [2]) came to 266 nM.

For `O[C@H]1COC[C@H]1Oc1nc(NCc2ccc(-c3ccccn3)cc2)ncc1C(F)(F)F` [Compound 151], the IC50 in test [1] (setting [2]) stood at 197 nM.

For the molecule `CC[C@@H](Nc1nc(NCc2ccc(-c3cc(CO)cc(CO)n3)cn2)ncc1C(F)(F)F)C(N)=O` [Compound 176], the IC50 in test [1] (setting [2]) is 171 nM.

Take `C[C@@H](O)[C@@H](Nc1nc(NCc2ccc(-c3ccccn3)cc2)ncc1C(F)(F)F)C(N)=O` [Compound 213]: in test [1], the IC50 was 123 nM.

`C[C@@H](O)[C@@H](C)Oc1nc(NCc2ccc(-c3ccccn3)cc2)ncc1C(F)(F)F` [Compound 131]: the IC50 in test [1] (setting [2]) is 100 nM.

Regarding `Cc1cc(CO)cc(-c2ccc(CNc3ncc(C(F)(F)F)c(OC4COC4)n3)cc2)n1` [Compound 64], in test [1] (setting [2]), the IC50 was determined as 251 nM.

For the molecule `FC(F)(F)c1cnc(NCc2ccc(-c3ccccn3)cc2)nc1NC1COC1` [Compound 8], the “degradation of Cyclin K (FIG. 2)” value on Cyclin K (CCNK) is “significantly induce the degradation of Cyclin K”.

As to `C[C@@H](Oc1nc(NCc2ccc(-c3ccccn3)cc2)ncc1C(F)(F)F)C(C)(C)O` [Compound 167], the IC50 in test [1] (setting [2]) worked out at 49 nM.

Values taken from patent US20240368147A1, “CYCLIN K DEGRADER” (ADLAI NORTYE BIOPHARMA CO., LTD., priority 2021, published 2024).
